Measured values from ChEMBL document CHEMBL1156829 (Proc Natl Acad Sci U S A, 2008).

Columns and labels:
Plasmodium falciparum [1] = test: NOVARTIS: Inhibition of Plasmodium falciparum 3D7 (drug-susceptible) proliferation in erythrocyte-based infection assay; format: functional, organism-based; conditions: Plasmodium falciparum, 3D7
Plasmodium falciparum [2] = test: NOVARTIS: Inhibition of Plasmodium falciparum W2 (drug-resistant) proliferation in erythrocyte-based infection assay; format: functional, organism-based
[3] = NOVARTIS: Cytotoxicity against human hepatocellular carcinoma cell line (Huh7); format: toxicity, cell-based, Huh-7; conditions: Huh7 cells (hepatocellular carcinoma cell line)
[4] = Plasmodium falciparum, W2, read-out: EC50

SMILES | EC50 (Plasmodium falciparum [1]) [nM] | EC50 (Plasmodium falciparum [2]; [4]) [nM] | CC50 [3] [nM] | EC50 (Plasmodium falciparum [2])
OC(CN1CCN(C2c3ccccc3-c3ccccc32)CC1)Cn1c2ccc(Br)cc2c2cc(Br)ccc21 (stereo not given) | > 11300 | 5080 | > 100000 | 
Oc1ccccc1-c1nc(-c2ccccc2)nc(-c2ccc(Br)cc2)n1 | > 1160 | > 1280 | > 10000 | 
CN(C)CC(C)(C)CNCc1cc(-c2ccnc3cc(Cl)ccc23)ccc1O | 880 | 660 | > 10000 | 
CCCNC1=C(c2ccc(OC)cc2)C(=O)c2ccccc21 | 3380 | 754 | > 100000 | 
COc1ccc(C2Nc3ccc(C(C)=O)cc3C3C=CCC32)cc1[N+](=O)[O-] (stereo not given) | 2150 | 2570 | > 100000 | 
COCCOC(=O)C1=C(C)NC2=C(C(=O)CCC2)C1c1ccc(OC)c(OC)c1OC (stereo not given) | > 6970 | 870 | > 100000 | 
Cn1c(=O)c2c(nc(N3CCN(C(=O)Nc4ccc(F)cc4F)CC3)n2C)n(C)c1=O | > 1250 | 1200 | > 10000 | 
CCOC(=O)c1c(CNCCN(CC)CC)n(C)c2cc(Br)c(O)cc12 | 515 | 185 | > 100000 | 
c1ccc(Cn2c(N=NNc3nc4ccccc4n3Cc3ccccc3)nc3ccccc32)cc1 | 85.4 | 81.9 | 19200 | 
O=C(NCCc1ccc(-c2ccccc2)cc1)c1ccc(NS(=O)(=O)C(F)(F)F)cc1 | > 1250 | > 439 | > 8730 | 
Cn1c(=O)c(Cl)c2c3c(c(Cl)ccc31)C(=O)c1ccccc1-2 | > 297 | > 1250 | > 10000 | 
CCOc1ccc(CN(C(=O)C(C)(C)CCl)C(C)CCCN(CC)CC)cc1 (stereo not given) | > 878 | 941 | > 10000 | 
Clc1ccc2c(N3CCC(n4cccc4)CC3)ccnc2c1 | 1020 | 1050 | > 100000 | 
CCN(C(C)=O)C1=C(N2CCOCC2)C(=O)c2ccccc2C1=O | 168 | 185 | 4090 | 
CCCNC(=O)c1ccc(OC2CCN(CC(c3ccccc3)c3ccccc3)CC2)c(OC)c1 | 614 | 392 | > 10000 | 
CCOC(=O)c1cnc2c(OC)cccc2c1Nc1cccc(C(F)(F)F)c1 | 926 |  | 26000 | No fit
Cc1ccc2[nH]c3c(NCCCN(C)C)ncnc3c2c1 | 77.7 | 355 | 42000 | 
CCC(c1nc2ccccc2c(=O)n1-c1ccc(F)cc1)N(CCc1ccccc1)C(=O)CCc1ccccc1 (stereo not given) | 1520 | 1540 | > 10000 | 
COc1cccc(OCCN2CCN(c3ncnc4c3cnn4-c3ccccc3)CC2)c1 | 6250 | 4050 | > 75700 | 
COc1ccc(C=NN=C2NC(=O)C(CC(=O)Nc3ccccc3)S2)cc1OC (stereo not given) | 482 | 857 | > 100000 | 
O=C(/C=C\c1ccccc1)Nc1ccc2[nH]c(-c3ccc(NC(=O)/C=C/c4ccccc4)cc3)nc2c1 | 254 | 425 | > 10000 | 
CC(=O)Nc1ccc(-c2nc3c4ccccc4c4ccc(I)cc4c3[nH]2)cc1 | 296 | 362 | > 100000 | 
CCC(CC)C(=O)Nc1c2c(nn1-c1cccc(Cl)c1)C[S+]([O-])C2 (stereo not given) | 11900 | 1300 | > 100000 | 
O=C(NC(Cc1ccccc1)c1nnc(SCc2ccc(F)cc2)n1-c1ccc(Cl)cc1Cl)C1CCCCC1 (stereo not given) | 748 | 350 | 1660 | 
O=C(NC1CC1)c1ccc(N2CCC(Cc3ccccc3)CC2)c([N+](=O)[O-])c1 | 212 | 619 | 53700 | 

SMILES | EC50 (Plasmodium falciparum [1]) [nM] | EC50 (Plasmodium falciparum [2]; [4]) [nM] | CC50 [3] [nM] | EC50 (Plasmodium falciparum [2])
COc1ccc(C2CC(=O)C3=C(C2)NC(C)=C(C(=O)OC2CCCC2)C3c2ccccc2C)cc1OC (stereo not given) | 33.4 | 13.1 | > 100000 | 
Cc1ccn2c(NC(C)(C)CC(C)(C)C)c(-c3ccccc3OS(=O)(=O)CC34CCC(CC3=O)C4(C)C)nc2c1 (stereo not given) | 1360 | 147 | > 10000 | 
CCCC(=O)O[C@]1(C(=O)CCl)[C@@H](C)C[C@H]2[C@@H]3CCC4=CC(=O)C=C[C@]4(C)[C@@]3(F)C(=O)C[C@@]21C | > 12500 | 6080 | 80000 | 
O=C(O)c1ccc2c(c1)N=CN(C1CCCCC1)C2 | 268 | 98.3 | > 10000 | 
CCOc1ccc(NC(=O)CSc2nncc(O)n2)cc1 | 859 | 473 | > 100000 | 
Cc1cc(N2CCCC2)nc2ccc(NC(=S)NCCCN3CCc4ccccc4C3)cc12 | 263 | 924 | 19100 | 
COc1ccc(C2(C(=O)NCc3ccccc3Cl)CCCC2)cc1OC | 12000 | 5220 | > 100000 | 
O=C(CNCCc1ccccc1)NC(c1ccccc1)c1ccccc1 | 5960 | 623 | 45400 | 
COc1ccc(C(NC(=O)COc2ccccc2)c2cc(Cl)c3cccnc3c2O)cc1OC (stereo not given) | 4660 | 3080 | 18500 | 
O=C(NNC(=S)NCc1ccco1)C(F)(F)F | > 12500 | 3170 | > 100000 | 
O=C(Nc1ccccc1[N+](=O)[O-])C1CC1(c1ccccc1)c1ccccc1 (stereo not given) | > 12500 | 647 | > 100000 | 
Fc1ccc2[nH]c3c(N4CCN(C(c5ccccc5)c5ccccc5)CC4)ncnc3c2c1 | 438 | 378 | 14800 | 
N#CCCN(CC1CCCO1)C(=O)Nc1ccc(Cl)c(C(F)(F)F)c1 (stereo not given) | > 1020 | > 523 | > 10000 | 
O=C(NCc1n[nH]c(=S)n1-c1ccc(Br)cc1)c1cccc2ccccc12 | 293 | 301 | > 100000 | 
Cc1ccc2[nH]c3c(NCCN4CCCCC4)ncnc3c2c1 | 216 | 99 | 39700 | 
COc1cc(C(=O)NCCc2ccccn2)ccc1OC1CCN(CC(c2ccccc2)c2ccccc2)CC1 | 440 | 86.4 | 13000 | 
O=C(NCCCN1CCCC1=O)c1cccn2c(=O)c3ccc(Cl)cc3nc12 | > 1350 | > 918 | > 10000 | 
COc1cc(OC)cc(N2C(=O)N(Cc3ccc(C(C)(C)C)cc3)c3ccccc3S2(=O)=O)c1 | 3750 | 6300 | > 100000 | 
CN(C)c1ccc(C=C2C(=O)NC(=O)N(Cc3ccccc3Cl)C2=O)cc1 | > 12500 | 1550 | > 100000 | 
c1ccc(-c2csc(Nc3nc4cc5c(cc4s3)OCO5)n2)nc1 | 650 | 417 | > 100000 | 
C=CCn1nc(C(=O)N2CCCC2)c2c1CCC(N1CCCCCC1)C2 (stereo not given) | 772 | 39.8 | > 10000 | 
COc1ccc(C2CC(c3ccccc3Cl)n3ncnc3N2C(=O)C2CC2)cc1 (stereo not given) | 1320 | > 1280 | > 10000 | 
O=C(CSc1nc2ccccc2[nH]1)Nc1ccc(Cl)cc1Cl | > 790 | > 1250 | > 10000 | 
Cc1ccc(N(C)C(=O)CCNS(=O)(=O)c2cc(Br)cnc2N)cc1 | 1920 | 224 | > 100000 | 
Cc1cc(Nc2ccc(Br)cc2)n2nc(C)nc2n1 | 728 | 595 | > 100000 | 
